# Assay results reported in PMC2724550, “Citrus auraptene suppresses cyclin D1 and significantly delays N-methyl nitrosourea induced mammary carcinogenesis in female Sprague-Dawley rats” (BMC Cancer, 2009).
# Marks after values point to notes of the source that are not given here.
# Columns and labels:
# Format in all cases: in vivo, female Sprague-Dawley rats
# [1] = Rat body weight and gross behavior in the tumor study
# Excerpt: Rats (28 days of age) were divided up randomly into groups of 24–26 each and were handled daily to get them accustomed to human touch. At 42 days of age the rats were shifted to the test diet. Control group and MNU only group were fed with Teklad (powdered diet) only. MNU/Auraptene 200 ppm group and MNU/Auraptene 500 ppm group received 200 ppm and 500 ppm of auraptene respectively, mixed in the diet for the duration of the study. The doses were selected from the pilot study conducted with a small number of animals. In addition to the 200 ppm dose of auraptene, which indicated the chemopreventive effect of auraptene, a higher dose of auraptene at 500 ppm was added to this study to see any increased chemopreventive effects. Auraptene has been administered in diet at 100 ppm and 500 ppm in other models of cancer. The diet was prepared once a week and stored in cold room. The food was replaced on Monday, Wednesday and Friday or as needed. […] At 50 days of age all the groups except the control group received intraperitoneal MNU injection (50 mg/kg bw in sterile acidified saline). The control group received vehicle only. […] Any tumors felt during palpation were recorded by location. […]
# The rat body weight data was compared between groups by One-Way ANOVA followed by Tukey test. […] The cell proliferation assays and western blot data were analyzed by One-Way ANOVA followed by Tukey test.
# [2] = test system: N-methyl nitrosourea (MNU) induced mammary carcinogenesis; assay: MNU-induced rat mammary carcinogenesis study, dietary auraptene; settings: for Incidence (percentage of rats with tumor) / Multiplicity (average number of tumors per rat): means ± SE; for tumor burden: average tumor weight per rat / tumor burden: total tumor weights per rat: at necropsy
# Method: A total of 128 female Sprague-Dawley rats (28 days of age), purchased from Harlan Teklad (Madison, WI), were used for this experiment. They were housed two per cage, in a temperature and humidity controlled AAALAC facility under 12 h light/dark cycle. All procedures were approved by LSUHSC Institutional Animal Care and Use Committee in accordance with NIH guidelines. They were fed test diets as described below and allowed access to food and water ad libitum.
# Rats (28 days of age) were divided up randomly into groups of 24–26 each and were handled daily to get them accustomed to human touch. At 42 days of age the rats were shifted to the test diet. Control group and MNU only group were fed with Teklad (powdered diet) only. MNU/Auraptene 200 ppm group and MNU/Auraptene 500 ppm group received 200 ppm and 500 ppm of auraptene respectively, mixed in the diet for the duration of the study. The doses were selected from the pilot study conducted with a small number of animals. In addition to the 200 ppm dose of auraptene, which indicated the chemopreventive effect of auraptene, a higher dose of auraptene at 500 ppm was added to this study to see any increased chemopreventive effects. Auraptene has been administered in diet at 100 ppm and 500 ppm in other models of cancer. The diet was prepared once a week and stored in cold room. The food was replaced on Monday, Wednesday and Friday or as needed. […] At 50 days of age all the groups except the control group received intraperitoneal MNU injection (50 mg/kg bw in sterile acidified saline). The control group received vehicle only. The rats were palpated for tumors twice a week starting at 2 weeks after MNU administration. Any tumors felt during palpation were recorded by location. The rats were weighed once a week. A diet consumption analysis was done once to see if rats were consuming enough feed across all the groups and there was no significant difference in food consumption between the groups (data not shown). Any rats found to be moribund during the study were sacrificed within 24 h and necropsied. At 18 weeks after MNU administration, rats were euthanized by carbon dioxide asphyxiation and necropsied. The tumor location and weight of the tumor were marked in the necropsy sheet. Mammary fat pads and the tumors were collected in formalin, OCT compound and liquid nitrogen.
# The rat body weight data was compared between groups by One-Way ANOVA followed by Tukey test. Groups were compared for the total number of tumors per rat by the nonparametric Kruskal-Wallis test. Time to tumor was estimated and compared among groups using survival curve analysis by the Log-rank test. The Cochran-Armitage test was used to test for trends in binomial response to different dose levels. Analysis was performed using StatXact (Cytel Software Corporation, Cambridge MA) and SPSS (SPSS Inc., Chicago IL). The cell proliferation assays and western blot data were analyzed by One-Way ANOVA followed by Tukey test.
# [3] = test system: eukaryotic Initiation Factor 4E (eIF4E); assay: Western blot of eIF4E expression in rat mammary tumors; settings: dietary auraptene, data not shown
# Method: The mammary tumors from the female Sprague-Dawley rats were analyzed for cyclin D1 expression and eukaryotic Initiation Factor 4E (eIF4E) as previously described. Briefly, samples were first homogenized in RIPA buffer [50 mM Tris-HCL (pH 7.4), 1% Triton-X, 150 mM NaCl, 1 mM EDTA, 1 mM sodium orthovanadate, 1 mM PMSF, 1 μg of aprotinin, leupeptin and pepstatin and 1 mM sodium fluoride]. The proteins were measured by Bradford method (using BSA as a standard), followed by the addition of 2 × sample buffer [0.125 M Tris, 10% (w/v) SDS, 40% (v/v) glycerol, 0.04% (w/v) bromophenol blue, and 80 mM dithiothreitol]. Samples were heated to 95°C for 5 min, and 10 μg of protein/well was loaded and resolved. The proteins were then transferred and detected for cyclin D1 expression as mentioned above. Lysate from MCF-7 cells treated with IGF-1 was used as positive control for cyclin D1.
# [4] = 200 ppm in diet, 112 days (16 weeks) after MNU
# [5] = 200 ppm in diet, 126 days (18 weeks) after MNU
# [6] = 200 ppm in diet, 126 days (18 weeks) after MNU, listed as Aur.
# [7] = 500 ppm in diet, 16 weeks, vs MNU only group
# [8] = 500 ppm in diet, 112 days (16 weeks) after MNU
# [9] = 500 ppm in diet, 126 days (18 weeks) after MNU
# [10] = 500 ppm in diet, 126 days (18 weeks) after MNU, listed as Aur.
compound,measurement,setting,value
CC(C)=CCC/C(C)=C/COc1ccc2ccc(=O)oc2c1 [auraptene],effect on rat body weight,"[1]; 200 and 500 ppm in diet, MNU treated groups",did not significantly affect body weight
same,tolerability in rats,"[1]; dietary auraptene up to 500 ppm, no observable change in gross behavior, no significant weight loss",well tolerated
same,Median time to tumor,[2]; 200 ppm in diet,91 days
same,first palpable tumor after MNU injection,[2]; 200 ppm in diet,38 days
same,Incidence (percentage of rats with tumor),[2]; [4],76.9 ± 8.4%
same,Multiplicity (average number of tumors per rat),[2]; [4],1.69 ± 0.27
same,Incidence (percentage of rats with tumor),[2]; [5],81%
same,Multiplicity (average number of tumors per rat),[2]; [5],2.08
same,Incidence (percentage of rats with tumor),[2]; [6],80.7 ± 7.8%
same,Multiplicity (average number of tumors per rat),[2]; [6],2.08 ± 0.33
same,tumor burden: average tumor weight per rat,[2]; 200 ppm in diet,2.94 ± 0.79 grams
same,tumor burden: total tumor weights per rat,[2]; 200 ppm in diet,6.52 ± 1.49 grams
same,delay of median time to tumor,"[2]; 200 ppm in diet, compared to MNU group",11 days
same,Median time to tumor,[2]; 500 ppm in diet,119 days
same,first palpable tumor after MNU injection,[2]; 500 ppm in diet,49 days
same,inhibition of tumor multiplicity,[2]; [7],37%
same,suppression of tumor incidence,[2]; [7],46%
same,Incidence (percentage of rats with tumor),[2]; [8],45.8 ± 10.4^b %
same,Multiplicity (average number of tumors per rat),[2]; [8],1.21 ± 0.35^c
same,Incidence (percentage of rats with tumor),[2]; [9],67%
same,Multiplicity (average number of tumors per rat),[2]; [9],2.0
same,Incidence (percentage of rats with tumor),[2]; [10],66.7 ± 9.8%
same,Multiplicity (average number of tumors per rat),[2]; [10],2.00 ± 0.43
same,tumor burden: average tumor weight per rat,[2]; 500 ppm in diet,1.79 ± 0.54 grams
same,tumor burden: total tumor weights per rat,[2]; 500 ppm in diet,6.50 ± 2.10 grams
same,delay of median time to tumor,"[2]; 500 ppm in diet, compared to MNU only group",39 days
same,total number of tumors in group,"[2]; 500 ppm in diet, end of study, MNU only group had 65",48 tumors
same,Median time to tumor,"[2]; 500 ppm in diet, listed as Aur.",119^d days
same,eIF4E protein expression in rat mammary tumors,[3],no significant change
